Test results published in patent US10898458B2, “Self-micellizing fatty acids and fatty acid ester compositions and their use in the treatment of disease states” (Micelle BioPharma, Inc., priority 2013, dated 2021).

Columns and labels:
[1] = in humans; cited from earlier work
[2] = biological target: COX-1 (Homo sapiens, UniProt P23219); details: enzyme involved in synthesis of TXA2; cited from earlier work
[3] = tested on: patients with PSC; details: 12-month open-label pilot study, n=23; cited from earlier work
[4] = tested on: porcine model of SBS; experiment: Small bowel morphometry (villus height, crypt depth), porcine SBS model; format: in vivo, piglets; details: within group
Procedure: (§1) The control group received a standard DHA ethyl ester preparation of substantially pure DHA ethyl ester (>90% DHA ethyl ester).
(§2) Samples of intestinal tissue resected at the time of surgery and remnants at sacrifice were collected from proximal jejunum (proximal to anastomosis) and distal ileum (distal to anastomosis) and morphological measurements of the crypts and villi were measured. Only intact villi and crypts were measured. All measurements were made by the same, single, blinded observer.
(§3) The primary outcome measure was a change in plasma DHA level in the SBS-treated group versus control group. Given the small number of piglets per group, appropriate small group statistical methods were used to evaluate differences in outcome variables. Variable summary statistics are expressed as median±interquartile range (IQR). The Wilcoxon Rank-Sum test, which is appropriate to compare two non-normal distributions as is common in small sample size, was used to compare outcome measures between groups; while the Wilcoxon signed-rank test, which is appropriate for repeated measurements within the same animal, was used to compare paired, before and after surgery outcome measures within groups. Differences in growth measurements and fatty acid levels over time between groups were evaluated using generalized linear mixed models (GLMM) to account for repeated measures and non-Gaussian, non-normal data.

[5] = tested on: porcine model of SBS; experiment: Growth (weight) in neonatal porcine model of SBS; format: in vivo, piglets; details: median ± IQR; for Change in weight: final minus starting weight, 4 days at 1 g/kg*day
Procedure: A study was conducted to evaluate, in an established porcine model of SBS, the systemic absorption and intestinal adaptation capacity of an ethyl ester form of DHA in combination with a surface active agent composition effective to spontaneously form micelles with said fatty acids upon contact with an aqueous media. In certain embodiments, the self-micellizing compositions may further contain at least one additional omega-3 fatty acid (either in the triglyceride, ester, or free fatty acid form), for example EPA or other known omega-3 fatty acids as disclosed herein. In certain embodiments, the self-micellizing compositions may further contain an anti-oxidant, such as tocopherol. In certain embodiments, the self-micellizing compositions may further contain an omega-6 fatty acid (either in the triglyceride, ester, or free fatty acid form), for example arachidonic acid (ARA), linoleic acid (LA), gamma-linolenic acid (GLA) or the omega-6 isomer of DPA, also known as osbond acid. This composition allows for micelle formation independent of the presence of bile salts as compared to a standard […] of DHA without a surface active agent (Control).
(§4) Newborn, crossbred (Hampshire×Landrace×Duroc×Yorkshire) piglets (n=10), were weighed, placed in cages in a heated room (˜30° C.), and were fed with a commonly available sow milk replacement formula. After an overnight fast, piglets underwent surgery for the placement of jugular and intragastric catheters for postoperative parenteral and enteral nutrition, respectively, and small bowel resection surgery. Following a 4-cm midline incision an 80% mid-jejunoileal resection was performed. The total amount of bowel resection was approximated using the following equation: total intestinal length=280 cm×body weight^0.60. A 20% remnant (˜60 cm total per kg BW) remained and was represented equally between proximal jejunum and ileum, representing ˜30 cm each remnant segment per kg bodyweight. ˜45 cm of jejunum distal to the ligament of Treitz and ˜45 cm of ileum proximal to the ileocecal junction were measured using sterile silk ribbon placed along the antimesentric border of the gently stretched small intestine. Intestine not included in the measurement was removed via cauterization. Bowel continuity was restored using an end-to-end jejunoileal anastomosis.
Continuous enteral feeding with a commonly available sow milk replacer formula, also lacking DHA, was slowly introduced 24 h after intestinal resection at 3 mL/kg*h via the intragastric catheter. The volume of enteral feedings was then advanced every 24 h by 1 ml/kg*h until a final enteral volume of 5 mL/kg*h was achieved on postoperative day 3 which represents approximately 50% of full enteral feeding volume and nutrient intake.
as §1
Piglets were weighed every other day. In addition to calculating a change in weight by subtracting the starting weight at the time of randomization from the final weight, percent weight change and growth velocity (g/kg*d) were also calculated. Percent weight change was calculated by: [((final weight-starting weight)/starting weight)×100]. Growth velocity was calculated by: [(weight change/starting weight)/4 days of treatment].
The primary outcome measure was a change in plasma DHA level in the SBS-treated group versus control group. […] Variable summary statistics are expressed as median±interquartile range (IQR). […]

[6] = Longitudinal plasma fatty acid levels, porcine SBS model; format: in vivo, piglets
Source text: as §1
Blood samples for systemic fatty acid profiles were obtained on the day of surgery and then twice daily until sacrifice on fourth postoperative day. Plasma fatty acids were isolated and measured.
as §3

[7] = tested on: porcine model of SBS; experiment: Small intestine resection and final organ weights, porcine SBS model; format: in vivo, piglets; details: at sacrifice after 4 days; median ± IQR
Procedure: as §4, §1, §2, §3

[8] = end of experiment vs time of surgery
[9] = Time 0, at the time of surgery (baseline)
[10] = within 12 hours, after the first enteral dose of DHA

Sequence of COX-1 (P23219 24-599): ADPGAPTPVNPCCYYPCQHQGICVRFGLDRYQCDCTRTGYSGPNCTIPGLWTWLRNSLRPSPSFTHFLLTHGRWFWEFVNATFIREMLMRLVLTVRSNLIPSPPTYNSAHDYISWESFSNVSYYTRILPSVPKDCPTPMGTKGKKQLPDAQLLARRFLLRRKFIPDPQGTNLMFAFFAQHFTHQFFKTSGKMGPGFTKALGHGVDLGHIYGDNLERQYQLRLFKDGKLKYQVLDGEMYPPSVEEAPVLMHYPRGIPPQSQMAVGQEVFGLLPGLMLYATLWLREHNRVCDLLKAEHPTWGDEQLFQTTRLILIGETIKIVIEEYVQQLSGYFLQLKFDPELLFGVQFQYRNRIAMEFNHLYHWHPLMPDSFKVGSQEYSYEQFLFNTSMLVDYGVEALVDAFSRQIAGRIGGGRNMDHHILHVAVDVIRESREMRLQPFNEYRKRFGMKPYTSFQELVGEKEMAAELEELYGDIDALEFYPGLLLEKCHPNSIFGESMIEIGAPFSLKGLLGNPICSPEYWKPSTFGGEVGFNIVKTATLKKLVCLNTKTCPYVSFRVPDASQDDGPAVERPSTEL

SMILES: CC/C=C\C/C=C\C/C=C\CCCCCCCC(=O)O [ALA, alpha-linolenic acid]
- Conversion to DHA [1]: 2-5%
- Conversion to EPA [1]: 5-10%

SMILES: CC/C=C\C/C=C\C/C=C\C/C=C\C/C=C\CCCCCC(=O)O [Omega-3 DPA, all-cis-7,10,13,16,19-docosapentaenoic acid]
- COX-1 activity [2]: potent inhibitor

SMILES: CC/C=C\C/C=C\C/C=C\C/C=C\C/C=C\C/C=C\CCC(=O)O [DHA, (4Z,7Z,10Z,13Z,16Z,19Z)-docosa-4,7,10,13,16,19-hexaenoic acid]
- Alkaline phosphatase [3]: significant decline
- Serum DHA levels [3]: increase

SMILES: CC/C=C\C/C=C\C/C=C\C/C=C\C/C=C\C/C=C\CCC(=O)OCC [Control, DHA ethyl ester]
- Villus height of distal ileum, Final vs Day 0 [4, 8]: reduced, but not significantly different
- Villus height of proximal jejunum, Final vs Day 0 [4, 8]: not significantly different
- Crypt depth of distal ileum, final vs baseline [4]: increased from baseline
- Crypt depth of proximal jejunum, final vs baseline ([4]; p<0.05): increased
- Growth velocity ([5]; 4 days of treatment): 13.5 ± 30.1 g/kg/day
- Weight change ([5]; 4 days of treatment): 5.4 ± 12.1%
- Weight at finish ([5]; after 4 days at 1 g/kg*day via intragastric catheter): 2594 ± 170 g
- Change in weight [5]: 132 ± 278 g
- Change in weight ([5]; listed as control): 132 ± 278 g
- Initial plasma ARA level [6, 9]: 11.8±0.5 mol %
- Initial plasma DHA level [6, 9]: 2.3±0.4 mol %
- Initial plasma EPA level [6, 9]: 0.3±0.1 mol %
- Initial plasma LA level [6, 9]: 16.6±1.8 mol %
- Plasma ARA level ([6]; third postoperative day): 8.7±0.8 mol %
- Plasma DHA level [6, 10]: 2.5 mol %
- Plasma EPA level [6, 10]: 0.2±0.005 mol %
- Brain (final weight) [7]: 14.0 ± 1.6 g/kg
- Ileum (final length) [7]: 17.5 ± 4.7 cm/kg
- Ileum (final weight) [7]: 5.3 ± 1.2 g/kg
- Jejunum (final length) [7]: 21.2 ± 6.7 cm/kg
- Jejunum (final weight) [7]: 5.2 ± 1.4 g/kg
- Liver (final weight) [7]: 36.3 ± 2.5 g/kg
